From paper PMC10449633 (Nature Chemical Biology, 2023)
Values joined by “and” are separate entries in the source; they are usually repeats but may differ in a detail not shown here. Equal values may be shown once. “Also recorded” adds a separate entry of the source. Read-outs that look alike come from different tables or passages of the source. Numbered stars: 1 amine (or outer) side, 2 acyl side, 3 side chain; on linkers, the order of the positions; unused ones are H or OH. Square brackets hold non-standard residues; d marks the D form. Peptide text beside a SMILES is read from it. ξ: configuration not given here. X1 = CN(C(Cc1cn(Cc2ccc(Br)cc2)c2ccccc12)C(=O)[*:2])[*:1]; ξAla(CF3) = NC(CC(F)(F)F)C(=O)O; X2 = N#CCCC(O[*:1])C(=O)[*:2]; NMeL = CN[CH](CC(C)C)C(=O)O; NMeA = CN[CH](C)C(=O)O

Legend:
R66I Sec61α = biological target: T1, R66I Sec61α (Canis lupus familiaris, UniProt P38377, R66I); assay: GLuc secretion reporter fused to full-length IL-2 or TNF, cells stably expressing R66I Sec61α; assay type: cell-based, canine; details: for Sec61 R66I - Hu IL2(FL) / Sec61 R66I - Hu PD1(ss) / Sec61 R66I - Hu TNFa(FL): replicate columns
T1 construct: expressed in transfected cells
T1 sequence (P60468 whole entry, the tested form may be a part): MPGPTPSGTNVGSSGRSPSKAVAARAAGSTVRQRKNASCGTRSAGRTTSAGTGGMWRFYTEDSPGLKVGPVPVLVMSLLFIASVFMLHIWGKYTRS
T1 sequence (P38377 whole entry R66I, the tested form may be a part): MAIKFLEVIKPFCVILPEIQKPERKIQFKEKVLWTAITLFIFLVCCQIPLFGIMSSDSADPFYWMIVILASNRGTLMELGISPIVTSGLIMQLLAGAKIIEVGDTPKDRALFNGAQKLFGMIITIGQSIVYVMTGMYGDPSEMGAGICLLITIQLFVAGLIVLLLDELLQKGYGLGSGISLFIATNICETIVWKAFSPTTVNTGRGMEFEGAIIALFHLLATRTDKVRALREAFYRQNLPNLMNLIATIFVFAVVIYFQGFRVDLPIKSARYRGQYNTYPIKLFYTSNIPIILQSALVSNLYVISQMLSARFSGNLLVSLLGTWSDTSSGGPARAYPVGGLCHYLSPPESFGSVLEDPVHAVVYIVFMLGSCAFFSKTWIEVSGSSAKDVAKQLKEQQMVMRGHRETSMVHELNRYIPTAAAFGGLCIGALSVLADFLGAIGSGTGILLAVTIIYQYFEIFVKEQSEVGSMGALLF
T1 sequence (P60059 whole entry, further chain, the tested form may be a part): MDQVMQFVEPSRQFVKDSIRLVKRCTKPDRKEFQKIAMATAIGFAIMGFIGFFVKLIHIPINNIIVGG

[1] = test system: collagen antibody-induced arthritis in BALB/c mice; assay: Anticollagen antibody-induced arthritis model, clinical scores; assay type: in vivo, mouse
Sec61α = assay: Photo-cotransin (CT7) photo-affinity labeling competition, LMNG-solubilized ER microsomes; assay type: binding, sheep; details: excess competitor, LMNG-solubilized ER membranes
From the text: To understand the molecular basis of Sec61 inhibition by KZR-8445, we pursued structural investigations using single-particle cryo-EM. Our initial attempts to isolate cotransin-bound ribosome–Sec61 complexes with the commonly used detergent digitonin were not successful. Several other detergents were screened for retention of native-like cotransin binding by subjecting solubilized Sec61 to a cotransin photo-affinity labeling assay[15] (Extended Data Fig. 2a). This screen identified lauryl maltoside neopentyl glycol (LMNG), a lipid-mimetic detergent that permits maximal photo-cotransin binding, as indicated by specific crosslinking to the Sec61α subunit in LMNG-solubilized ER membranes.
Sheep pancreatic ER microsomes (SRM) were isolated according to the method described earlier[48],[49]. […] The labeled proteins were analyzed by SDS–PAGE and in-gel fluorescence followed by Western blotting using anti-Sec61α and anti-RPL18 antibodies. […]
Extended Data Fig. 2 Isolation and biochemical characterization of the inhibitor-bound ribosome-Sec61 (RNC) complexes. […] (c) Gel filtration profile of clarified detergent-solubilized sample fractions with measured absorbance at A260. […]

[2] = test system: Sec61 R66I TNFa(FL) reporter cells; assay: CTG (CellTiter-Glo) viability of TNFa(FL) reporter cells expressing Sec61 R66I; assay type: cell-based; details: replicate columns
From the text: Supplement 41589_2023_1326_MOESM7_ESM.xlsx, sheet "Panel B" | column: Sec61 R66I - CTG (TNFa(FL))

Sec61α Q294A = Sec61α Q294A (Canis lupus familiaris, UniProt P38377, Q294A); assay: Luciferase reporter assay in HEK293 cells expressing Sec61α Q294A; design: remaining activity: dose or concentration left out as unconfirmed; details: HEK293, 24 h, read-out: luciferase reporter activity (% of no-drug control), Q294A
Sec61α Q294A, sequence (P60059 whole entry): as the sequence (P60059 whole entry, further chain, the tested form may be a part) above
Sec61α Q294A, sequence (P38377 whole entry Q294A): as the sequence (P38377 whole entry R66I, the tested form may be a part) above, with I66R, Q294A counted along it
Sec61α Q294A, sequence (P60468 whole entry, further chain): as the sequence (P60468 whole entry, the tested form may be a part) above
Method: (§1) Data are mean values ± s.d. from n = 2 independent experiments.
(§2) HEK293T cells (0.3 × 10^6) were seeded per well of a six-well plate and incubated at 37 °C in 5% CO2 for 24 h to adhere. Each of the two wells was transfected with 1 µg of plasmid encoding a luciferase with the signal peptide of either VCAM1 or pPL using PEI in a 5:1 ratio, after which cells were returned to the incubator for a further 24 h. Transfected cells were then resuspended following trypsinization, cell count estimated using a TC20 Automated Cell Counter (BioRad) and diluted to seed a 96-well flat-bottom plate with 1.6 × 10^4 cells per well. […] Cells were then incubated for a further 24 h, after which the luciferase-containing media were transferred to a clean 96-well plate and stored at −20 °C. Luciferase activity of the media was estimated using a Gaussia-GLOW Juice Luciferase Assay kit from PJK Biotech GmbH as per the manufacturer’s instructions. Luminescence was measured using an EnSpire Multimode plate reader (PerkinElmer). Background luminescence from media placed in a well with neither cells nor drug was subtracted from all values, and measurements were calculated as a percentage of luminescence intensity of a well expressing the appropriate luciferase construct in the absence of any drug. Curves were fitted, and IC50 values were calculated using GraphPad Prism 8.
WT canine Sec61 was cloned into pcDNA5/FRT/TO (Thermo Fisher Scientific), and point mutations were generated using PCR. All mutants were sequence verified. HEK293 Flp-In T-REx cells (Thermo Fisher Scientific, R78007) were cultured in Dulbecco’s modified Eagle’s medium (Gibco) supplemented with 10% FBS (Gibco) at 37 °C in a humidified 5% CO2 atmosphere. Approximately 0.3 µg of pOG44 and 1 µg of targeting construct plasmids were mixed in 250 µl of OptiMEM (Thermo Fisher Scientific, 51985-026). A total of 3 µl (3 µg) Lipofectamine3000 transfection reagent was then added to the DNA mix and incubated at room temperature for 20 min, and the whole mixture was added to the cells. Cells were exposed to 100 µg ml^−^1 hygromycin B (Invitrogen) and 10 µg ml^−^1 blasticidin for 3–4 weeks until the appearance of resistant colonies. Colonies were expanded into T75 flasks and induced with doxycycline (Sigma-Aldrich, D9891) at a concentration of 1–5 µg ml^−^1 for 48 h. Cells were collected, and total RNA was extracted followed by cDNA amplification and sequencing of Sec61 with gene-specific PCR primers to confirm. Cells were then used for the luciferase reporter assays as above.
(§3) Data are mean values ± SD and are representative of n = 2 independent experiments.

SARS-CoV-2 = assay type: cell-based; details: for infectious virus particle production: 48 h
Sec61α S82P = Sec61α S82P (Canis lupus familiaris, UniProt P38377, S82P); assay: Luciferase reporter assay in HEK293 cells expressing Sec61α S82P; design: remaining activity: dose or concentration left out as unconfirmed; details: HEK293, 24 h, read-out: luciferase reporter activity (% of no-drug control), S82P
Sec61α S82P, sequence (P60468 whole entry): as the sequence (P60468 whole entry, the tested form may be a part) above
Sec61α S82P, sequence (P38377 whole entry S82P): as the sequence (P38377 whole entry R66I, the tested form may be a part) above, with I66R, S82P counted along it
Sec61α S82P, sequence (P60059 whole entry, further chain): as the sequence (P60059 whole entry, further chain, the tested form may be a part) above
Method: as §1, §2
HEK293 Flp-In T-REx cells (Thermo Fisher Scientific, R78007) were cultured in Dulbecco’s modified Eagle’s medium (Gibco) supplemented with 10% FBS (Gibco) at 37 °C in a humidified 5% CO2 atmosphere. Approximately 0.3 µg of pOG44 and 1 µg of targeting construct plasmids were mixed in 250 µl of OptiMEM (Thermo Fisher Scientific, 51985-026). A total of 3 µl (3 µg) Lipofectamine3000 transfection reagent was then added to the DNA mix and incubated at room temperature for 20 min, and the whole mixture was added to the cells. Cells were exposed to 100 µg ml^−^1 hygromycin B (Invitrogen) and 10 µg ml^−^1 blasticidin for 3–4 weeks until the appearance of resistant colonies. Colonies were expanded into T75 flasks and induced with doxycycline (Sigma-Aldrich, D9891) at a concentration of 1–5 µg ml^−^1 for 48 h. Cells were collected, and total RNA was extracted followed by cDNA amplification and sequencing of Sec61 with gene-specific PCR primers to confirm. Cells were then used for the luciferase reporter assays as above.
as §3

human PBMCs = details: concentrations up to 20 µM; PBMCs and splenocytes

## CC(C)CC1NC(=O)C(Cc2cn(Cc3ccc(Br)cc3)c3ccccc23)N(C)C(=O)C(CC(F)(F)F)NC(=O)C(CC(C)C)N(C)C(=O)C(CC(F)(F)F)NC(=O)C(CCC#N)OC(=O)C(C)N(C)C1=O (stereo not shown) [KZR-8445] (cyclo([X1]L[NMeA][X2][ξAla(CF3)][NMeL][ξAla(CF3)]); configuration not given here)
R66I Sec61α; 0.32 nM
  Sec61 R66I - Hu IL2(FL): 116 (2×) and 120
  Sec61 R66I - Hu PD1(ss): 105 and 121 and 112
  Sec61 R66I - Hu TNFa(FL): 121 and 138 and 116
R66I Sec61α; 1.6 nM
  Sec61 R66I - Hu IL2(FL): 105 and 113 and 110
  Sec61 R66I - Hu PD1(ss): 120 and 103 and 107
  Sec61 R66I - Hu TNFa(FL): 85 and 126 and 152
R66I Sec61α; 8 nM
  Sec61 R66I - Hu IL2(FL): 113 and 98 and 120
  Sec61 R66I - Hu PD1(ss): 115 and 104 and 125
  Sec61 R66I - Hu TNFa(FL): 118 and 113 and 150
R66I Sec61α; 40 nM
  Sec61 R66I - Hu IL2(FL): 101 and 106 and 117
  Sec61 R66I - Hu PD1(ss): 115 and 120 and 121
  Sec61 R66I - Hu TNFa(FL): 103 and 123 and 141
R66I Sec61α; 200 nM
  Sec61 R66I - Hu IL2(FL): 106 and 96 and 94
  Sec61 R66I - Hu PD1(ss): 88 and 107 and 86
  Sec61 R66I - Hu TNFa(FL): 88 and 105 and 111
R66I Sec61α; 1000 nM
  Sec61 R66I - Hu IL2(FL): 79 and 90 and 87
  Sec61 R66I - Hu PD1(ss): 68 and 64 and 75
  Sec61 R66I - Hu TNFa(FL): 82 (2×) and 71
R66I Sec61α; 5000 nM
  Sec61 R66I - Hu IL2(FL): 83 and 76 and 88
  Sec61 R66I - Hu PD1(ss): 52 and 49 (2×)
  Sec61 R66I - Hu TNFa(FL): 73 and 85 and 77
R66I Sec61α; 25000 nM
  Sec61 R66I - Hu IL2(FL): 89 and 88 and 72
  Sec61 R66I - Hu PD1(ss): 48 (2×) and 40
  Sec61 R66I - Hu TNFa(FL): 70 and 78 and 77
R66I Sec61α; IL-2 and TNFα GLuc, versus WT Sec61α
  block of secretion of both GLuc reporter constructs in R66I cells: reduced
[1]; 10 mg kg−1 thrice weekly
  P versus vehicle (one-way ANOVA), disease progression: 0.01
[1]; 20 mg kg−1 thrice weekly
  P versus vehicle (one-way ANOVA), disease progression: < 0.0001
[1]; 20 mg kg−1 weekly
  P versus vehicle, disease progression: 0.007
  efficacy of weekly administration: effective
[1]; IV thrice weekly after onset of disease
  arthritis disease progression / clinical symptoms: blocked disease progression in a dose-dependent manner; also recorded: ameliorated clinical arthritis symptoms
[1]; highest dose
  anti-inflammatory effect compared with dexamethasone: stronger anti-inflammatory effect than the corticosteroid dexamethasone
Sec61α
  competition of photo-cotransin crosslinking to Sec61α: efficiently competed
[2]; 0.32 nM
  Sec61 R66I - CTG (TNFa(FL)): 108 and 113 and 120
[2]; 1.6 nM
  Sec61 R66I - CTG (TNFa(FL)): 101 and 108 and 112
[2]; 8 nM
  Sec61 R66I - CTG (TNFa(FL)): 103 and 106 and 110
[2]; 40 nM
  Sec61 R66I - CTG (TNFa(FL)): 99 and 111 and 119
[2]; 200 nM
  Sec61 R66I - CTG (TNFa(FL)): 106 and 110 and 120
[2]; 1000 nM
  Sec61 R66I - CTG (TNFa(FL)): 112 (2×) and 113
[2]; 5000 nM
  Sec61 R66I - CTG (TNFa(FL)): 102 and 107 and 104
[2]; 25000 nM
  Sec61 R66I - CTG (TNFa(FL)): 101 and 94 and 102
Sec61α Q294A; Drug nM (log10) 0.18303
  remaining activity at 0.00018303 µM: 80.7%
Sec61α Q294A; Drug nM (log10) 0.660151
  remaining activity at 0.000660151 µM: 67.2%
Sec61α Q294A; Drug nM (log10) 1.13727
  remaining activity at 0.00113727 µM: 44.1%
Sec61α Q294A; Drug nM (log10) 1.61439
  remaining activity: 22.4%
Sec61α Q294A; Drug nM (log10) 2.09151
  remaining activity: 11%
Sec61α Q294A; Drug nM (log10) 2.56864
  remaining activity: 4.26%
Sec61α Q294A; Drug nM (log10) 3.04576
  remaining activity: 2.2%
Sec61α Q294A; Drug nM (log10) 3.52288
  remaining activity: 1.85%
Sec61α Q294A; Drug nM (log10) 4
  remaining activity at 0.004 µM: 2.09%
Sec61α Q294A; Drug nM (log10) -0.29409
  remaining activity at 0.000508 µM: 89.6%
SARS-CoV-2; 0.01 uM
  infectious virus particle production: 2000000 TCID50 per milliliter and 1175555 TCID50 per milliliter
SARS-CoV-2; 10 uM
  infectious virus particle production: 928.318 TCID50 per milliliter and 632.456 TCID50 per milliliter
SARS-CoV-2; Vero cells
  CoV-2 replication: blocked
Sec61α S82P; Drug nM (log10) 0.18303
  remaining activity at 0.00018303 µM: 99%
Sec61α S82P; Drug nM (log10) 0.660151
  remaining activity at 0.000660151 µM: 80.3%
Sec61α S82P; Drug nM (log10) 1.13727
  remaining activity at 0.00113727 µM: 73.5%
Sec61α S82P; Drug nM (log10) 1.61439
  remaining activity: 47.5%
Sec61α S82P; Drug nM (log10) 2.09151
  remaining activity: 22.4%
Sec61α S82P; Drug nM (log10) 2.56864
  remaining activity: 10.1%
Sec61α S82P; Drug nM (log10) 3.04576
  remaining activity: 4.21%
Sec61α S82P; Drug nM (log10) 3.52288
  remaining activity: 2.82%
Sec61α S82P; Drug nM (log10) 4
  remaining activity at 0.004 µM: 3.25%
Sec61α S82P; Drug nM (log10) -0.29409
  remaining activity at 0.00050805 µM: 102%
Human PBMCs
  effects on cell viability: minimal effects
